Columns and labels:
[1] = tested on: passive cutaneous anaphylaxis reaction; test: Passive cutaneous anaphylaxis reaction; type: in vivo, rat; conditions: for % inhibition: reduction of coloured surface; for ED50: Rattus norvegicus
Description: The method used is that described by MOTA I in "Immunology" 1964, 7, Page 681. This method consists of sensitizing rats by 4 intradermal injections of 0.1 ml rat antiserum. The antiserum is obtained from animals treated with a mixture of ovalbumin and bordetella pertussis. 72 hours after sensitization, the product to be studied and 1 ml per rat (IV) of a 0.25% solution of Evans blue+5 mg/ml ovalbumin in an isotonic aqueous solution of […] sodium chloride are administered to the animals intravenously or intraperitoneally. Thirty minutes after this last injection, the animals are killed and one measures the surface area of each bruise corresponding to the point of injection of the antiserum. The results are expressed as a percentage reduction of the coloured surface. The results are given in Table III hereafter in which the results obtained with disodium cromoglycate (used intravenously) are also shown by way of comparison.

histamine [2] = test: Histamine bronchoconstrictor aerosol (antihistamine activity); type: in vivo, guinea pig; conditions: for % protection: animals without apneic crisis within 5 minutes
Description: Batches of 6 guinea pigs weighing from 200 to 250 g are exposed to an aerosol of 0.2% histamine in an aqueous solution, in a small chamber for 5 minutes. Two aerosols are used at an interval of 4 hours. The product tested is administered intraperitoneally 30 minutes before the use of the second aerosol.

histamine [3] = test: Action with regard to a LD100 of histamine (protection from mortality); type: in vivo, guinea pig; conditions: for % protection: mortality caused by histamine, 1 hour
Description: Male tricolour guinea pigs weighing 400 to 500 g receive the product studied intraperitoneally. 30 minutes later, 800 γ/kg histamine, or the LD 100 in physiological solution are injected intraveinously.
The animals are kept under observation for 1 hour.

## O=C(O)c1cc(=O)c2c(OCC(O)COc3cccc4oc(C(=O)O)cc(=O)c34)cccc2o1 [Disodium cromoglycate, disodium cromoglycate]
[1]; IV, 0.15 mg/kg, control 31.77 ± 3.16
  Mean Surface area: 27.86 ± 3.82 mm^2
[1]; IV, 0.15 mg/kg, T ns
  % inhibition: 12%
[1]; IV, 0.31 mg/kg, control 31.77 ± 3.16
  Mean Surface area: 30.5 ± 2.59 mm^2
[1]; IV, 0.31 mg/kg, T ns
  % inhibition: 4%
[1]; IV, 0.625 mg/kg, control 72.46 ± 4.37
  Mean Surface area: 35.42 ± 5.02 mm^2
[1]; IV, 0.625 mg/kg, T ***
  % inhibition: 51%
[1]; IV, 1.25 mg/kg, control 31.77 ± 3.16
  Mean Surface area: 2.30 ± 1.07 mm^2
[1]; IV, 1.25 mg/kg, T ***
  % inhibition: 93%
[1]; IV, 2.5 mg/kg, control 31.77 ± 3.16
  Mean Surface area: 0.23 ± 0.23 mm^2
[1]; IV, 2.5 mg/kg, T ***
  % inhibition: 99%
[1]; iv
  ED50: 0.64 mg/kg

## CN1CCN(C2=Nc3ccccc3Sc3ncccc32)CC1 [Example 2, 5-(1'-methyl-4'-piperazinyl)pyrido[2,3-b][1,5]benzothiazepine]
[1]; I.P., 0.125 mg/kg, control 66.7 ± 2.62
  Mean Surface area: 54.4 ± 3.26 mm^2
[1]; I.P., 0.125 mg/kg, T **
  % inhibition: 18%
[1]; I.P., 0.5 mg/kg, control 90.8 ± 5.92
  Mean Surface area: 46.3 ± 3.78 mm^2
[1]; I.P., 0.5 mg/kg, T ***
  % inhibition: 49%
[1]; I.P., 1 mg/kg, control 66.7 ± 2.62
  Mean Surface area: 25.1 ± 3.45 mm^2
[1]; I.P., 1 mg/kg, T ***
  % inhibition: 62%
[1]; ip, I.P.
  ED50: 0.57 mg/kg
Histamine [2]; 0.062 mg/kg intraperitoneally
  % protection: 17%
Histamine [2]; 0.125 mg/kg intraperitoneally
  % protection: 33%
Histamine [2]; 0.250 mg/kg intraperitoneally
  % protection: 50%
Histamine [2]; 0.500 mg/kg intraperitoneally
  % protection: 100%
Histamine [2]; Cavia porcellus, ip, intraperitoneally, 0.2% histamine aerosol
  ED50: 0.155 mg/kg
Histamine [3]; 0.062 mg/kg intraperitoneally
  % protection: 0%
Histamine [3]; 0.125 mg/kg intraperitoneally
  % protection: 60%
Histamine [3]; 0.250 mg/kg intraperitoneally
  % protection: 100%
Histamine [3]; Cavia porcellus, ip, intraperitoneally, 800 γ/kg histamine (LD 100) intravenously
  ED50: 0.12 mg/kg

From patent publication US4163785A, “Benzothiazepine compounds and compositions” (Hexachimie, priority 1978, dated 1979)
